Values belong to the molecule of their own block, whether it stands above or below them.
Columns and labels:
[1] = test system: ECHCG; test: Herbicidal pre-emergence action (Table A2); type: in vivo, Echinochloa crus-galli; conditions: application rate 320 g/ha; visual grading after ca. 3 weeks
Procedure, shortened: (§1)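 One monocotyledonous and one dicotyledonous weed species shared each pot. Seeds were sown in sandy loam and covered over with soil.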

[2] = test system: LOLRI; test: Herbicidal pre-emergence action (Table A3); type: in vivo, Lolium rigidum; conditions: application rate 320 g/ha; visual grading after ca. 3 weeks
Procedure, shortened: as §1

[3] = test system: SETVI; test: Herbicidal pre-emergence action (Table A5); type: in vivo, Setaria viridis; conditions: application rate 1280 g/ha; visual grading after ca. 3 weeks
Procedure, shortened: as §1

[4] = test system: ECHCG; test: Herbicidal post-emergence action (Table B3); type: in vivo, Echinochloa crus-galli; conditions: application rate 1280 g/ha; rated visually after about 3 weeks
Procedure, shortened: (§2)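 Percent herbicidal activity scored visually versus untreated controls, with 100% meaning dead plants. Scoring took place ~3 weeks after post-emergence treatment of one-leaf-stage weeds grown in sandy loam pots in a greenhouse.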

[5] = test system: POAAN; test: Herbicidal post-emergence action (Table B7); type: in vivo, Poa annua; conditions: application rate 1280 g/ha
Procedure, shortened: as §2

[6] = test system: VERPE; test: Herbicidal post-emergence action (Table B10); type: in vivo, Veronica persica; conditions: application rate 1280 g/ha
Procedure, shortened: as §2

[7] = test system: ALOMY; test: Herbicidal pre-emergence action, section C (Table C2); type: in vivo, Alopecurus myosuroides; conditions: application rate 320 g/ha; visual grading after ca. 3 weeks
[8] = test system: AMARE; test: Herbicidal pre-emergence action, section C (Table C3); type: in vivo, Amaranthus retroflexus; conditions: application rate 320 g/ha; visual grading after ca. 3 weeks
[9] = test system: ECHCG; test: Herbicidal pre-emergence action, section C (Table C6); type: in vivo, Echinochloa crus-galli; conditions: application rate 320 g/ha; visual grading after ca. 3 weeks
[10] = test system: SETVI; test: Herbicidal pre-emergence action, section C (Table C10); type: in vivo, Setaria viridis; conditions: application rate 80 g/ha; visual grading after ca. 3 weeks
[11] = test system: VIOTR; test: Herbicidal pre-emergence action, section C (Table C12); type: in vivo, Viola tricolor; conditions: application rate 320 g/ha; visual grading after ca. 3 weeks
Text: (§4) Seeds of mono- and dicotyledonous weed plants and crop plants were sown, in plastic or organic planting pots, in sandy loam and covered with soil. The compounds according to the invention, formulated in the form of wettable powders (WP) or as emulsifiable concentrates (EC), were applied to the surface of the covering soil as aqueous suspension or emulsion, with the addition of 0.5% of an additive, at an application rate of 600 1 of water/ha (converted). Following treatment, the pots were placed in a greenhouse and kept under optimum growth conditions for the test plants.

[12] = test system: ZEAMX; test: Pre-emergence effects on crop plants (Table D1); type: in vivo, Zea mays; conditions: crop plant; application rate 80 g/ha; visual grading after ca. 3 weeks
[13] = test system: TRZAS; test: Pre-emergence effects on crop plants (Table D2); type: in vivo, Triticum aestivum; conditions: crop plant; application rate 80 g/ha; visual grading after ca. 3 weeks
[14] = test system: GLXMA; test: Pre-emergence effects on crop plants (Table D4); type: in vivo, Glycine max; conditions: crop plant; application rate 80 g/ha; visual grading after ca. 3 weeks
Text: Seeds of mono- and dicotyledonous weed plants and crop plants were sown, in plastic or organic planting pots, in sandy loam and covered with soil. The compounds according to the invention, formulated in the form of wettable powders (WP) or as emulsifiable concentrates (EC), were applied to the surface of the covering soil as aqueous suspension or emulsion, with the addition of 0.5% of an additive, at an application rate of 600 1 of water/ha (converted).
Following treatment, the pots were placed in a greenhouse and kept under optimum growth conditions for the test plants.

[15] = test system: BRSNW; test: Pre-emergence effects on crop plants (Table D5); type: in vivo, Brassica napus; conditions: crop plant; application rate 320 g/ha; visual grading after ca. 3 weeks
[16] = test system: ECHCG; test: Herbicidal post-emergence action, section E (Table E5); type: in vivo, Echinochloa crus-galli; conditions: application rate 320 g/ha; assessed visually after ca. 3 weeks
Text: (§3) 2 to 3 weeks after sowing, the test plants were sprayed in the single-leaf stage.

[17] = test system: ZEAMX; test: Post-emergence effects on crop plants (Table F1); type: in vivo, Zea mays; conditions: application rate 320 g/ha, crop plant ZEAMX
Text: as §3

[18] = test system: TRZAS; test: Post-emergence effects on crop plants (Table F2); type: in vivo, Triticum aestivum; conditions: application rate 320 g/ha, crop plant TRZAS
Text: as §3

[19] = test system: ORYZA; test: Post-emergence effects on crop plants (Table F3); type: in vivo, Oryza sativa; conditions: application rate 320 g/ha, crop plant ORYZA
Text: as §3

[20] = test system: BRSNW; test: Post-emergence effects on crop plants (Table F5); type: in vivo, Brassica napus; conditions: application rate 320 g/ha, crop plant BRSNW
Text: as §3

[21] = test system: DIGSA; test: Herbicidal pre-emergence action, section C (Table C5); type: in vivo, Digitaria sanguinalis; conditions: application rate 320 g/ha; visual grading after ca. 3 weeks
[22] = test system: ABUTH; test: Herbicidal pre-emergence action, section C (Table C1); type: in vivo, Abutilon theophrasti; conditions: application rate 320 g/ha; visual grading after ca. 3 weeks
[23] = test system: MATIN; test: Herbicidal pre-emergence action, section C (Table C8); type: in vivo, Matricaria inodora; conditions: application rate 320 g/ha; visual grading after ca. 3 weeks
Text: as §4

[24] = test system: VERPE; test: Herbicidal pre-emergence action, section C (Table C11); type: in vivo, Veronica persica; conditions: application rate 320 g/ha; visual grading after ca. 3 weeks
[25] = test system: GLXMA; test: Post-emergence effects on crop plants (Table F4); type: in vivo, Glycine max; conditions: application rate 320 g/ha, crop plant GLXMA
Text: as §3

pre-emergence activity against ZEAMX [12]: 10%
pre-emergence activity against TRZAS [13]: 0%
pre-emergence activity against GLXMA [14]: 0%
pre-emergence activity against BRSNW [15]: 0%
SMILES: O=C1N(Cc2ccccc2)CCCC12CCCN(Cc1ccccc1Cl)C2=O (racemic) [I-066]
pre-emergence activity against ECHCG [1]: 100%
pre-emergence activity against LOLRI [2]: 100%
pre-emergence activity against SETVI [3]: 100%
post-emergence activity against ECHCG [4]: 90%
post-emergence activity against POAAN [5]: 90%
post-emergence activity against VERPE [6]: 90%
pre-emergence activity against ALOMY [7]: 90%
pre-emergence activity against AMARE [8]: 90%
pre-emergence activity against ECHCG [9]: 80%
pre-emergence activity against SETVI [10]: 100%
pre-emergence activity against VIOTR [11]: 80%
post-emergence activity against ECHCG [16]: 80%
post-emergence activity against ZEAMX [17]: 0%
post-emergence activity against TRZAS [18]: 0%
post-emergence activity against ORYZA [19]: 0%
post-emergence activity against BRSNW [20]: 0%

SMILES: O=C1N(Cc2cc(F)c(F)cc2F)CCCC12CCCN(Cc1cc(F)c(F)cc1F)C2=O (racemic) [I-213, 2,8-bis[(2,4,5-trifluorophenyl)methyl]-2,8-diazaspiro[5.5]undecane-1,7-dione]
pre-emergence activity against ALOMY [7]: 90%
pre-emergence activity against AMARE [8]: 90%
pre-emergence activity against DIGSA [21]: 80%
pre-emergence activity against ECHCG [9]: 100%

SMILES: O=C1N(Cc2c(F)cccc2F)CCCC12CCCN(Cc1c(F)cccc1F)C2=O (single isomer, unassigned; (+)) [I-083, (+)-2,8-bis[(2,6-difluorophenyl)methyl]-2,8-diazaspiro[5.5]undecane-1,7-dione]
pre-emergence activity against ABUTH [22]: 100%
pre-emergence activity against ALOMY [7]: 90%
pre-emergence activity against AMARE [8]: 100%
pre-emergence activity against DIGSA [21]: 90%
pre-emergence activity against MATIN [23]: 100%
pre-emergence activity against VERPE [24]: 100%
pre-emergence activity against VIOTR [11]: 100%
post-emergence activity against ZEAMX [17]: 0%
post-emergence activity against TRZAS [18]: 10%
post-emergence activity against ORYZA [19]: 0%
post-emergence activity against GLXMA [25]: 0%
post-emergence activity against BRSNW [20]: 0%
